Reference: patent US7514452B2, “2-furancarboxylic acid hydrazides and pharmaceutical compositions containing the same” (Dainippon Pharmaceutical Co., Ltd, priority 2002, dated 2009)

Assays:
glucagon receptor [1] = target: glucagon receptor (Mus musculus, UniProt Q61606); assay: Experiment for glucagon binding inhibition, mouse hepatic membrane (125I-glucagon); conditions: male ddY mouse hepatic membrane, 125I-glucagon 50 pM, 25° C. for 30 minutes; read-out: Glucagon binding inhibitory activity IC50 (nM) Mouse
glucagon receptor (Mus musculus, UniProt Q61606), sequence (Q61606 27-485): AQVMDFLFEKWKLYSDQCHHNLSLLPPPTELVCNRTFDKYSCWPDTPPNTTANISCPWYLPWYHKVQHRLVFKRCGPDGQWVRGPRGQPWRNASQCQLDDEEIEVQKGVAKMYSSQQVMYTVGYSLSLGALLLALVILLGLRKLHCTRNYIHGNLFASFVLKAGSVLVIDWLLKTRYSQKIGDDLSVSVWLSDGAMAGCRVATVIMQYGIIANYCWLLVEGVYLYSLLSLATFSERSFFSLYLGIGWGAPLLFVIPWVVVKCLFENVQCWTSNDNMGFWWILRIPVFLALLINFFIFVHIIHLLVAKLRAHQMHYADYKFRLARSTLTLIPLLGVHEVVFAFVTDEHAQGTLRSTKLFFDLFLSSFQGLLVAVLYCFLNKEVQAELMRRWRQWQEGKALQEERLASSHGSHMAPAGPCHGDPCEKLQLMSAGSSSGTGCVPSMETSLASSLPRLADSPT
Summary of the method: (§1)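 Liver membranes from male SD rats or male ddY mice were incubated with 125I-glucagon and compound for 30 min at 25 °C. Bound radioactivity was collected on filters washed with pH 7.2 Tris-HCl and counted by γ counter, in duplicate. IC50 was taken from a pseudo Hill plot.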

glucagon receptor [2] = target: glucagon receptor (Rattus norvegicus, UniProt P30082); assay: Experiment for glucagon binding inhibition, rat hepatic membrane (125I-glucagon); conditions: male SD rat hepatic membrane, 125I-glucagon 50 pM, 25° C. for 30 minutes; read-out: Glucagon binding inhibitory activity IC50 (nM) Rat
glucagon receptor (Rattus norvegicus, UniProt P30082), sequence (P30082 27-485): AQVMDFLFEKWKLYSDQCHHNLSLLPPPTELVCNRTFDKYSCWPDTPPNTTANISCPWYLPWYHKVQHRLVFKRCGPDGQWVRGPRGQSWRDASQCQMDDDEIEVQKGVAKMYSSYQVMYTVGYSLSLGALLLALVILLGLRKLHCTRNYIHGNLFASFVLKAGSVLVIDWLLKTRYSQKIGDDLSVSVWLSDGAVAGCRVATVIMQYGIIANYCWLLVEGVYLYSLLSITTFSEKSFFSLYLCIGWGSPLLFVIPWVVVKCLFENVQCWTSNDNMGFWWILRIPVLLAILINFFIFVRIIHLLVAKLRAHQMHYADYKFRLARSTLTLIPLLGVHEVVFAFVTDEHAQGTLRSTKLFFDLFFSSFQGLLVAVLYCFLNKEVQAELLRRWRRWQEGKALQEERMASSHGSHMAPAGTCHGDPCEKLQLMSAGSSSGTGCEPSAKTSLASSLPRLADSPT
Summary of the method: as §1

Compound | IC50 (glucagon receptor [1]) [nM] | melting point [°C] | IC50 (glucagon receptor [2]) [nM]
COc1ccc(Cc2cccc(-c3ccoc3C(=O)NNC(=O)c3ccc(O)c([N+](=O)[O-])c3)c2)cc1 [Example 234] | 56 | 102 to 104 | 39
Cc1cccc(Cc2cccc(-c3ccoc3C(=O)NNC(=O)c3ccc(O)c([N+](=O)[O-])c3)c2)c1 [Example 235] | 18 | 149 to 151 | 49
Cc1ccc(-c2ccoc2C(=O)NNC(=O)c2ccc(O)c(C(F)(F)F)c2)cc1 [Example 240] | 180 | 120 to 123 | 300
CCCc1ccc(-c2ccoc2C(=O)NNC(=O)c2ccc(O)c(C(F)(F)F)c2)cc1 [Example 242] | 180 | 112 to 114 | 89
CCCCCOc1ccc(-c2ccoc2C(=O)NNC(=O)c2ccc(O)c(F)c2)cc1 [Example 243] | 290 | 103 to 106 | 380
O=C(NNC(=O)c1occc1-c1ccc(OCc2ccccc2)cc1)c1ccc(O)c([N+](=O)[O-])c1 [Example 245] | 64 | 163 to 164 | 29
